# Data from PMC7850424 (Journal of Enzyme Inhibition and Medicinal Chemistry, 2021).
# Assays:
# SARS-CoV-2 3CL^pro [1] = target: T1, SARS-CoV-2 3CL^pro (Severe acute respiratory syndrome coronavirus 2, UniProt P0DTD1); experiment: biochemical; settings: for inhibition at 50 µM: read-out: % Inhibition at 50 μM, 50 μM compound; for % Inhibition at 50 μM: 50 μM compound
# SARS-CoV = settings: cited from earlier work
# SARS-CoV-2 3CL^pro [2] = target: T1, SARS-CoV-2 3CL^pro; type: biochemical
# [3] = tested on: SARS-CoV-2 (C-Tan-nCoV Wuhan strain 01); experiment: microbe, parasite or virus in culture; type: cell-based
# SARS-CoV 3CL^pro = SARS-CoV 3CL^pro (Severe acute respiratory syndrome coronavirus, UniProt P0C6X7); type: biochemical
SMILES,inhibition at 50 µM (SARS-CoV-2 3CL^pro [1]) [%],also measured
"O=c1cc(-c2ccccc2)oc2cc(O)c(O)cc12 [6,7-Dihydroxyflavone]",56.7 ± 2,–
O=c1c(O)c(-c2cc(O)c(O)c(O)c2)oc2cc(O)cc(O)c12 [Myricetin],30.8 ± 4.6,inhibition of SARS-CoV (SARS-CoV): reported to inhibit
O=c1cc(-c2ccccc2)oc2cc(O)c(O)c(O)c12 [Baicalein],–,"anti-SARS-CoV-2 3CLpro activity in cell lysate (SARS-CoV-2 3CL^pro [2]): showed inhibition activity; inhibition activity at the post-entry stage [3]: mainly active; EC50 ([3]; Severe acute respiratory syndrome coronavirus 2, Vero, 48 h): 2900 nM; inhibition of SARS-CoV 3CLpro activity (SARS-CoV 3CL^pro): inhibit"
"O=c1cc(-c2ccccc2)oc2ccc(O)c(O)c12 [5,6-Dihydroxyflavone]",26.6 ± 0.4,–
COc1c(O)cc(O)c2c(=O)cc(-c3ccccc3)oc12 [Wogonin],6.1 ± 0.8,% Inhibition at 50 μM (SARS-CoV-2 3CL^pro [1]): not active
O=c1cc(-c2ccc(O)cc2)oc2cc(O)c(O)c(O)c12 [Scutellarein],–,inhibition of SARS-CoV (SARS-CoV): reported to inhibit
O=c1cc(-c2ccccc2)oc2cc(O)cc(O)c12 [Chrysin],2.6 ± 1.1,–
O=C(O)[C@H]1O[C@@H](Oc2cc3oc(-c4ccccc4)cc(=O)c3c(O)c2O)[C@H](O)[C@@H](O)[C@@H]1O [Baicalin],~41,–
O=c1c(O)c(-c2ccc(O)cc2)oc2c(O)c(O)cc(O)c12 [Herbacetin],59.1 ± 1.9,–
O=C(O)[C@H]1O[C@@H](Oc2cc3oc(-c4ccc(O)cc4)cc(=O)c3c(O)c2O)[C@H](O)[C@@H](O)[C@@H]1O [Scutellarin],28.9 ± 1.6,% Inhibition at 50 μM (SARS-CoV-2 3CL^pro [1]; 50 µM): mild inhibitory activity
